≈ marks a conversion by molar mass, not a printed value.

Data set [1] can be described thus: Ratio of drug level in blood to plasma of CD1 mouse at 12.5 mg/kg, iv and 12.5 mg/kg, po by LC-MS/Ms analysis. Type of data set: ADME, organism-based.
Data set [2] in a line: Volume of distribution at steady state in CD1 mouse at 12.5 mg/kg, iv and 12.5 mg/kg, po by LC-MS/Ms analysis. Type of data set: ADME, organism-based. The conditions noted are these: in vivo, read-out: Vdss.
A short description of data set [3]: Half life in CD1 mouse at 12.5 mg/kg, iv and 12.5 mg/kg, po by LC-MS/Ms analysis. Type of data set: ADME, organism-based. The conditions noted are these: in vivo.
The nature of data set [4]: Clearance in CD1 mouse at 12.5 mg/kg, iv and 12.5 mg/kg, po by LC-MS/Ms analysis. The data set is classed as ADME, organism-based. The conditions noted are these: in vivo.
The subject of data set [5] is Plasmodium falciparum. The data set can be described thus: Antimalarial activity against chloroquine and pyrimethamine-resistant Plasmodium falciparum W2 infected in human A-positive erythrocytes assessed as inhibition of [3H]-hypoxanthine incorporation after 48 hrs by semi-automated microdilution technique. Type of data set: functional, organism-based.
The test system of the next data set is Haemophilus influenzae. Nature of the data set: Antibacterial activity against Haemophilus influenzae ATCC 49247 by broth microdilution method. The data set is classed as functional. A general note: Broth dilution looks for growth in wells or tubes with falling amounts of substance.
The next data set deals with Streptococcus pneumoniae. Nature of the data set: Antibacterial activity against clinical isolate Streptococcus pneumoniae SP030. The data set is classed as functional.
The test system of a further data set is Moraxella catarrhalis. Nature of the data set: Antibacterial activity against Moraxella catarrhalis ATCC 23246 by broth microdilution method. The data set is classed as functional.
In data set [6] the test system is Liver microsomes. Nature of the data set: Intrinsic clearance in rat liver microsomes assessed per gram of liver at 1 uM after 60 mins by LC-MS/Ms analysis. The data set is classed as ADME, Microsome. The conditions noted are these: 1 h.
Data set [7] concerns Plasmodium falciparum. Nature of the data set: Ratio of azithromycin IC50 to compound IC50 for chloroquine-sensitive Plasmodium falciparum 3D7A. Type of data set: functional.
The test system of data set [8] is Liver microsomes. The data set can be described thus: Intrinsic clearance in human liver microsomes assessed per gram of liver at 1 uM after 60 mins by LC-MS/Ms analysis. The conditions noted are these: 1 h. Type of data set: ADME, Microsome. (In general: Microsomes from liver hold many membrane-bound enzymes, among them those of drug oxidation.)
Data set [9] relates to Plasmodium falciparum. The data set can be described thus: Ratio of azithromycin IC50 to compound IC50 for chloroquine and pyrimethamine-resistant Plasmodium falciparum W2. The data set is classed as functional.
The next data set deals with Staphylococcus aureus. The data set can be described thus: Antibacterial activity against Staphylococcus aureus ATCC 13709 by broth microdilution method. The data set is classed as functional.
A further data set concerns Mus musculus. The data set can be described thus: Dose normalized AUC in CD1 mouse at 12.5 mg/kg, po by LC-MS/Ms analysis. Type of data set: ADME, organism-based. On the set-up: dose 12.5 mg/kg, route oral. The conditions noted are these: in vivo.
The subject of data set [10] is Plasmodium falciparum. The data set can be described thus: Ratio of chloroquine IC50 to compound IC50 for […] Plasmodium falciparum W2. Type of data set: functional.
A further data set has as its system HepG2. Nature of the data set: Cytotoxicity against human HepG2 cells after 24 hrs by MTS assay. The conditions noted are these: HepG2, 24 h. Type of data set: cell-based.
The next data set has as its system Streptococcus pyogenes. The data set can be described thus: Antibacterial activity against clinical isolate Streptococcus pyogenes 3565. The data set is classed as functional.
The test system of a further data set is Liver. The data set can be described thus: Intrinsic clearance in mouse liver microsomes assessed per gram of liver at 1 uM after 60 mins by LC-MS/Ms analysis. The data set is classed as ADME, Microsome. The conditions noted are these: 1 h.
The nature of data set [11]: Oral bioavailability in CD1 mouse at 12.5 mg/kg by LC-MS/Ms analysis. Type of data set: ADME, organism-based. The conditions noted are these: in vivo.
In data set [12] the test system is Plasmodium falciparum. Nature of the data set: Antimalarial activity against chloroquine-sensitive Plasmodium falciparum 3D7A infected in human A-positive erythrocytes assessed as inhibition of [3H]-hypoxanthine incorporation after 48 hrs by semi-automated microdilution technique. The data set is classed as functional, organism-based.

For `CC[C@H]1OC(=O)[C@H](C)[C@@H](O[C@H]2C[C@@](C)(OC)[C@@H](O)[C@H](C)O2)[C@H](C)[C@@H](O[C@@H]2O[C@H](C)C[C@H](N(C)CCCNC(=O)CCCNc3ccnc4cc(Cl)ccc34)[C@H]2O)[C@](C)(O)C[C@@H](C)CN(C)[C@H](C)[C@@H](O)[C@]1(C)O`, in data set [1], the blood plasma ratio was found to be 1. In addition, in data set [2], the Vd worked out at 116 L/kg. In addition, the half-life in data set [3] was 63.9 h. In [4], this molecule displayed a clearance of 47.7 mL/min/kg. For the same molecule, the figures for the IC50 in the data set on Plasmodium falciparum [5], in the data set with HepG2 and in the data set with Plasmodium falciparum [12] were 48 nM, > 50000 nM and 77 nM, respectively. For the same molecule, the MIC with Haemophilus influenzae is > 64 µg/mL; against Streptococcus pneumoniae, 4 µg/mL (≈ 3.85 µM); against Moraxella catarrhalis, 4 µg/mL (≈ 3.85 µM); in the data set on Staphylococcus aureus, > 64 µg/mL; with Streptococcus pyogenes, 16 µg/mL (≈ 15.4 µM). Further, the CLint in the data set with Liver microsomes [6], with Liver microsomes [8] and with Liver was < 0.6 mL/min/g each time. In addition, the figures for the “Ratio IC50” value in the data set on Plasmodium falciparum [7], in the data set on Plasmodium falciparum [9] and with Plasmodium falciparum [10] were 56, 150 and 9, respectively. This molecule also gave an AUC/dose with Mus musculus of 13.28 ng·h/mL. Further, the bioavailability in [11] is 5%.

In the case of `CC[C@H]1OC(=O)[C@H](C)[C@@H](O)[C@H](C)[C@@H](O[C@@H]2O[C@H](C)C[C@H](N(C)CCCNC(=O)CCCNc3ccnc4cc(Cl)ccc34)[C@H]2O)[C@](C)(O)C[C@@H](C)CN(C)[C@H](C)[C@@H](O)[C@]1(C)O`, the IC50 is 295 nM in the data set on Plasmodium falciparum [5], > 50000 nM in the data set with HepG2 and 636 nM in the data set with Plasmodium falciparum [12]. Besides, the MIC with Haemophilus influenzae, against Streptococcus pneumoniae, against Moraxella catarrhalis, in the data set with Staphylococcus aureus and in the data set on Streptococcus pyogenes was > 64 µg/mL each time. Moreover, the “Ratio IC50” value with Plasmodium falciparum [7] and in the data set with Plasmodium falciparum [9] was 9 throughout.

As for `CC[C@H]1OC(=O)[C@H](C)[C@@H](O[C@H]2C[C@@](C)(OC)[C@@H](O)[C@H](C)O2)[C@H](C)[C@@H](O[C@@H]2O[C@H](C)C[C@H](N(C)CCCNc3ccnc4cc(Cl)ccc34)[C@H]2O)[C@](C)(O)C[C@@H](C)CN(C)[C@H](C)[C@@H](O)[C@]1(C)O`, the MIC is > 64 µg/mL with Haemophilus influenzae; 8 µg/mL (≈ 8.39 µM) against Streptococcus pneumoniae; 1 µg/mL (≈ 1.05 µM) against Moraxella catarrhalis; > 64 µg/mL in the data set on Staphylococcus aureus; 16 µg/mL (≈ 16.8 µM) in the data set with Streptococcus pyogenes. For the same molecule, the IC50 in the data set with HepG2 amounted to 3000 nM.

Consider `CC[C@H]1OC(=O)[C@H](C)[C@@H](O)[C@H](C)[C@@H](O[C@@H]2O[C@H](C)C[C@H](N(C)CCCNc3ccnc4cc(Cl)ccc34)[C@H]2O)[C@](C)(O)C[C@@H](C)CN(C)[C@H](C)[C@@H](O)[C@]1(C)O`, for which the MIC is > 64 µg/mL with Haemophilus influenzae; > 64 µg/mL in the data set with Streptococcus pneumoniae; 32 µg/mL (≈ 40.2 µM) in the data set on Moraxella catarrhalis; > 64 µg/mL with Staphylococcus aureus; > 64 µg/mL against Streptococcus pyogenes. The same molecule displayed an IC50 in the data set on HepG2 of 14000 nM.

In the case of `CC[C@H]1OC(=O)[C@H](C)[C@@H](O[C@H]2C[C@@](C)(OC)[C@@H](O)[C@H](C)O2)[C@H](C)[C@@H](O[C@@H]2O[C@H](C)C[C@H](N(C)C(=O)CCCNc3ccnc4cc(Cl)ccc34)[C@H]2O)[C@](C)(O)C[C@@H](C)CN(C)[C@H](C)[C@@H](O)[C@]1(C)O`, the IC50 is 93 nM in the data set on Plasmodium falciparum [5], > 50000 nM with HepG2 and 104 nM in the data set with Plasmodium falciparum [12]. Further, the MIC in the data set on Haemophilus influenzae is > 64 µg/mL; with Streptococcus pneumoniae, 8 µg/mL (≈ 8.15 µM); against Moraxella catarrhalis, 4 µg/mL (≈ 4.07 µM); against Staphylococcus aureus, > 64 µg/mL; in the data set with Streptococcus pyogenes, 16 µg/mL (≈ 16.3 µM). Further, the “Ratio IC50” value worked out at 111 in the data set on Plasmodium falciparum [7], 29 in the data set on Plasmodium falciparum [9] and 5 in the data set on Plasmodium falciparum [10].

Take `CC[C@H]1OC(=O)[C@H](C)[C@@H](O[C@H]2C[C@@](C)(OC)[C@@H](O)[C@H](C)O2)[C@H](C)[C@@H](O[C@@H]2O[C@H](C)C[C@H](N(C)C(=O)CNc3ccnc4cc(Cl)ccc34)[C@H]2O)[C@](C)(O)C[C@@H](C)CN(C)[C@H](C)[C@@H](O)[C@]1(C)O`: the IC50 in the data set on Plasmodium falciparum [5] stood at 13 nM; in the data set with HepG2 it was 27000 nM; in the data set on Plasmodium falciparum [12], 10 nM. For the same molecule, the MIC is > 64 µg/mL in the data set with Haemophilus influenzae; 2 µg/mL (≈ 2.1 µM) in the data set with Streptococcus pneumoniae; 8 µg/mL (≈ 8.39 µM) in the data set on Moraxella catarrhalis; 16 µg/mL (≈ 16.8 µM) in the data set on Staphylococcus aureus; 4 µg/mL (≈ 4.19 µM) against Streptococcus pyogenes.

Consider `CC[C@H]1OC(=O)[C@H](C)[C@@H](O[C@H]2C[C@@](C)(OC)[C@@H](O)[C@H](C)O2)[C@H](C)[C@@H](O[C@@H]2O[C@H](C)C[C@H](N(C)Cc3cn(CCCNc4ccnc5cc(Cl)ccc45)nn3)[C@H]2O)[C@](C)(O)C[C@@H](C)CN(C)[C@H](C)[C@@H](O)[C@]1(C)O`, for which the MIC in the data set with Haemophilus influenzae was > 64 µg/mL; with Streptococcus pneumoniae, 0.5 µg/mL (≈ 0.483 µM); in the data set on Moraxella catarrhalis it was 2 µg/mL (≈ 1.93 µM); in the data set with Staphylococcus aureus, 16 µg/mL (≈ 15.5 µM); against Streptococcus pyogenes it was 0.5 µg/mL (≈ 0.483 µM).

Take `CC[C@H]1OC(=O)[C@H](C)[C@@H](O[C@H]2C[C@@](C)(OC)[C@@H](O)[C@H](C)O2)[C@H](C)[C@@H](O[C@@H]2O[C@H](C)C[C@H](N(C)C)[C@H]2O)[C@](C)(O)C[C@@H](C)CN(C)[C@H](C)[C@@H](O)[C@]1(C)O` [AZITHROMYCIN]: the IC50 is 2680 nM in the data set with Plasmodium falciparum [5], 203000 nM with HepG2 and 11500 nM in the data set with Plasmodium falciparum [12]. Further, the MIC in the data set on Haemophilus influenzae was 2 µg/mL (≈ 2.67 µM); against Streptococcus pneumoniae it was 0.06 µg/mL (≈ 0.0801 µM); against Moraxella catarrhalis, 0.06 µg/mL (≈ 0.0801 µM); in the data set on Staphylococcus aureus, 1 µg/mL (≈ 1.34 µM); with Streptococcus pyogenes, 0.125 µg/mL (≈ 0.167 µM).

By half-life is commonly meant the time needed for the level to fall by half in the phase considered. A low value points to rapid decline. By IC50 is commonly meant the concentration that gives 50% inhibition. The bioavailability is the share of a dose that reaches the circulation, judged against a reference dose that is usually intravenous. Lower therefore signals little systemic uptake.

(Values after ChEMBL document CHEMBL1944516, “Novel hybrid molecules based on 15-membered azalide as potential antimalarial agents” (Eur J Med Chem, 2012).)
